According to patent publication US9446039B2, “Aminoheteroaryl compounds as MTH1 inhibitors” (CEMM—FORSCHUNGSZENTRUM FÜR MOLEKULARE MEDIZIN GMBH, priority 2012, dated 2016):

Legend:
Type in all cases: binding
[1] = target: T1, SW480 colon carcinoma cells lysate proteins (Homo sapiens, UniProt Q15785); details: PreyGene TOMM34
T1 sequence (Q15785 1-309): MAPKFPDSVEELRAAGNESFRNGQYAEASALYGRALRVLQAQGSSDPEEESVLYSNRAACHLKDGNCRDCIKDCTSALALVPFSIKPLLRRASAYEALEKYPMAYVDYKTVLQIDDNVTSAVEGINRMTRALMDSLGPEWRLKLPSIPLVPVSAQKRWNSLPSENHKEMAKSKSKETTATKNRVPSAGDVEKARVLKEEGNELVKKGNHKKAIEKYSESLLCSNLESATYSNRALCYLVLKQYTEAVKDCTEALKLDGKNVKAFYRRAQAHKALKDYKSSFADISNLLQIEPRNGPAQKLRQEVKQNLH

[2] = target: T2, SW480 colon carcinoma cells lysate proteins (Homo sapiens, UniProt P40925); details: PreyGene MDH1
T2 sequence (P40925 1-334): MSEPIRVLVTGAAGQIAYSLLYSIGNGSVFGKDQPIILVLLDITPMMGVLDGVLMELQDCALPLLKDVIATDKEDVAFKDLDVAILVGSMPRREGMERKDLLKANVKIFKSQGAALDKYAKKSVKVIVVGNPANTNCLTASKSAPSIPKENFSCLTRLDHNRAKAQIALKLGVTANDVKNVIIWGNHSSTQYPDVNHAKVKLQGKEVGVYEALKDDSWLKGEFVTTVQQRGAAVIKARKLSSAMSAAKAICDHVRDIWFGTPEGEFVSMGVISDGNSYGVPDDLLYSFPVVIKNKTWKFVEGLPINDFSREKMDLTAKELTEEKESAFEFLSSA

[3] = target: SW480 colon carcinoma cells lysate proteins (Homo sapiens, UniProt Q02878); details: PreyGene RPL6; SW480 cells
[4] = target: SW480 colon carcinoma cells lysate proteins (Homo sapiens, UniProt P63313); details: PreyGene TMSB10
SW480 colon carcinoma cells lysate proteins (Homo sapiens, UniProt P63313), sequence (P63313 whole entry): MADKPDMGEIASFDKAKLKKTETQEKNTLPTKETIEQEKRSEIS

[5] = target: SW480 colon carcinoma cells lysate proteins (Homo sapiens, UniProt O43707); details: PreyGene ACTN4
SW480 colon carcinoma cells lysate proteins (Homo sapiens, UniProt O43707), sequence (O43707 whole entry): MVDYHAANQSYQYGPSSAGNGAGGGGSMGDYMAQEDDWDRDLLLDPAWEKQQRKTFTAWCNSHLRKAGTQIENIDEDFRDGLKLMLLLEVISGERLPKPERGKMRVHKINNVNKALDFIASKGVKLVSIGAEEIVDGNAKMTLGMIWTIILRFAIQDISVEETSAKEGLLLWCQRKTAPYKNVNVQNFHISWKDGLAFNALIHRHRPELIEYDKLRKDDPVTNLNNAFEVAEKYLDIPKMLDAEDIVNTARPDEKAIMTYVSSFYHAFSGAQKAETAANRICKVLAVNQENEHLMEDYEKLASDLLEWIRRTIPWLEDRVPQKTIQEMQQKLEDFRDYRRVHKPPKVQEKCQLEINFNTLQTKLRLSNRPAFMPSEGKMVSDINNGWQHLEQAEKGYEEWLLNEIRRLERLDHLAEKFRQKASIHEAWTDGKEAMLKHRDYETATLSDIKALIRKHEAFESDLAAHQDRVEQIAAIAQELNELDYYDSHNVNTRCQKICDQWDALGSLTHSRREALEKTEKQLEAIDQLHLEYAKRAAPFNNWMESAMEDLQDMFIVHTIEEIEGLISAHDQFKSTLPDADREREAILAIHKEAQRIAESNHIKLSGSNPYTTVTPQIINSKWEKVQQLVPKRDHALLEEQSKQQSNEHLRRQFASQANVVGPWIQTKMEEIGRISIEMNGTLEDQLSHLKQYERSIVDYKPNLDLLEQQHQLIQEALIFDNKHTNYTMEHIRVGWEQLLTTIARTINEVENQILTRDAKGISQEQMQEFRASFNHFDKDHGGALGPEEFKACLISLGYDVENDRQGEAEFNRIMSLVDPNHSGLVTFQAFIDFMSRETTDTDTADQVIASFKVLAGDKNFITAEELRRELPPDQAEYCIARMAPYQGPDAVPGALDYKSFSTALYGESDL

[6] = target: T3, SW480 colon carcinoma cells lysate proteins (Homo sapiens, UniProt P00492); details: PreyGene HPRT1
T3 sequence (P00492 1-218): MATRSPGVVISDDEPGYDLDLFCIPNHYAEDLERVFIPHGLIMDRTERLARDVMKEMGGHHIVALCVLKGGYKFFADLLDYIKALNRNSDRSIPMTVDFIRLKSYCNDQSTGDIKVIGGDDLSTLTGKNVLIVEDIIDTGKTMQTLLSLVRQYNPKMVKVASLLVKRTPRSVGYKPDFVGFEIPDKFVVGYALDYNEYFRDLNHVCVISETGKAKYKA

[7] = target: T4, SW480 colon carcinoma cells lysate proteins (Homo sapiens, UniProt P78371); details: PreyGene CCT2; SW480 cells
T4 sequence (P78371 1-535): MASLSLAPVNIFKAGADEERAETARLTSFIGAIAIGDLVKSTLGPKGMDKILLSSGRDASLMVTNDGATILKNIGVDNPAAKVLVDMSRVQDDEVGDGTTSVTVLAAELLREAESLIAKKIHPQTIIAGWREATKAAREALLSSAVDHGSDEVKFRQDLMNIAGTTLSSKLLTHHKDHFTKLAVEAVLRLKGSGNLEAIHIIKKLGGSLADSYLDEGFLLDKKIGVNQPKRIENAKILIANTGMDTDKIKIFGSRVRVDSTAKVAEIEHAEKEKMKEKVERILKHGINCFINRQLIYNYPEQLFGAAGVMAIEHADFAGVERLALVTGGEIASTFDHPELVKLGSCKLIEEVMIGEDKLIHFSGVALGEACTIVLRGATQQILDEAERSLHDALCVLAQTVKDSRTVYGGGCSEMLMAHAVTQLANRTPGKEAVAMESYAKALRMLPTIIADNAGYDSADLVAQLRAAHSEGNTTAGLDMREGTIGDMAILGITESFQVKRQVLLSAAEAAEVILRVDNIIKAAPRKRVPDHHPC

[8] = target: SW480 colon carcinoma cells lysate proteins (Homo sapiens, UniProt P37802); details: PreyGene TAGLN2
SW480 colon carcinoma cells lysate proteins (Homo sapiens, UniProt P37802), sequence (P37802 whole entry): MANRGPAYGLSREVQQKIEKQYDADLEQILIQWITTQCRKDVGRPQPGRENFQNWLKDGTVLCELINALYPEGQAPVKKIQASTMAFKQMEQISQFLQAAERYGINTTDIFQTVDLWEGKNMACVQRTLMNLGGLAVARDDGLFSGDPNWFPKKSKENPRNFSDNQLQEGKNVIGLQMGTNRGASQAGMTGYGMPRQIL

[9] = target: SW480 colon carcinoma cells lysate proteins (Homo sapiens, UniProt Q14240); details: PreyGene EIF4A2; SW480 cells
SW480 colon carcinoma cells lysate proteins (Homo sapiens, UniProt Q14240), sequence (Q14240 whole entry): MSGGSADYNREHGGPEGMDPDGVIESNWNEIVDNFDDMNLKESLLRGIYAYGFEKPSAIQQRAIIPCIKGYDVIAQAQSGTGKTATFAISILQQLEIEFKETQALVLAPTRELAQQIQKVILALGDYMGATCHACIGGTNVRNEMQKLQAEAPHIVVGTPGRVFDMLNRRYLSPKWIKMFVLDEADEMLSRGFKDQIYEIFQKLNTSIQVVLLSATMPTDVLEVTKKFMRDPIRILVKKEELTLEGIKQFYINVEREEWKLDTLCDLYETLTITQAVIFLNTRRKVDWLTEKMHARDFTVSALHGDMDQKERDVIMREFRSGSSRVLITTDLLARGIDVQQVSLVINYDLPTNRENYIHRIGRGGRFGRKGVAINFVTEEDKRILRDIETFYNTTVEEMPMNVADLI

With C[C@H](Oc1cc(-c2cnn(C3CCNCC3)c2)cnc1N)c1c(Cl)ccc(F)c1Cl [(5)-crizotinib] the AvgP [1] was 0.1791, the “SC.Exp. 1-1” value [1] was 0 and the “SC.Exp. 1-2” value [1] was 2. For the same compound, the “SC.Exp. 2-1” value [1] was 0, the “SC.Exp. 2-2” value [1] was 0 and the “Sum (SC.Exp.)” value [1] was 2. The AvgP [2] was 0.4615, the “SC.Exp. 1-1” value [2] was 5 and the “SC.Exp. 1-2” value [2] was 6. The “SC.Exp. 2-1” value [2] was 0, the “SC.Exp. 2-2” value [2] was 0 and the “Sum (SC.Exp.)” value [2] was 11. For the same compound, the AvgP [3] was 0, the “SC.Exp. 1-1” value [3] was 7 and the “SC.Exp. 1-2” value [3] was 11. The “SC.Exp. 2-1” value [3] was 4, the “SC.Exp. 2-2” value [3] was 6 and the “SC.Exp. Sum” value [3] was 28. The AvgP [4] was 0.3518, the “SC.Exp. 1-1” value [4] was 2 and the “SC.Exp. 1-2” value [4] was 2. The “SC.Exp. 2-1” value [4] was 0, the “SC.Exp. 2-2” value [4] was 0 and the “Sum (SC.Exp.)” value [4] was 4. The AvgP [5] was 0.2923, the “SC.Exp. 1-1” value [5] was 4 and the “SC.Exp. 1-2” value [5] was 4. The “SC.Exp. 2-1” value [5] was 0, the “SC.Exp. 2-2” value [5] was 0 and the “Sum (SC.Exp.)” value [5] was 8. The AvgP [6] was 0.1891, the “SC.Exp. 1-1” value [6] was 2 and the “SC.Exp. 1-2” value [6] was 0. For the same compound, the “SC.Exp. 2-1” value [6] was 0, the “SC.Exp. 2-2” value [6] was 0 and the “Sum (SC.Exp.)” value [6] was 2. For the same compound, the AvgP [7] was 0, the “SC.Exp. 1-1” value [7] was 9 and the “SC.Exp. 1-2” value [7] was 11. The “SC.Exp. 2-1” value [7] was 3, the “SC.Exp. 2-2” value [7] was 3 and the “SC.Exp. Sum” value [7] was 26. For the same compound, the AvgP [8] was 0.1795, the “SC.Exp. 1-1” value [8] was 6 and the “SC.Exp. 1-2” value [8] was 5. The “SC.Exp. 2-1” value [8] was 0, the “SC.Exp. 2-2” value [8] was 0 and the “Sum (SC.Exp.)” value [8] was 11. For the same compound, the AvgP [9] was 0, the “SC.Exp. 1-1” value [9] was 1 and the “SC.Exp. 1-2” value [9] was 1. For the same compound, the “SC.Exp. 2-1” value [9] was 0, the “SC.Exp. 2-2” value [9] was 1 and the “SC.Exp. Sum” value [9] was 3.
